Measured values: ChEMBL document CHEMBL4673219, “Novel 5,6-disubstituted pyrrolo[2,3-d]pyrimidine derivatives as broad spectrum antiproliferative agents: Synthesis, cell based assays, kinase profile and molecular docking study” (Bioorg Med Chem, 2018)
Several values for one entry are separate records, joined by “and”; a condition that tells them apart may be missing. Equal values may be shown once.

Assays:
T47D [1] = assay: Growth inhibition of human T47D cells assessed as growth percentage at 10 uM incubated for 48 hrs by sulforhodamine B assay relative to control; format: functional; conditions: read-out: Activity
SF-295 = assay: Growth inhibition of human SF-295 cells assessed as growth percentage at 10 uM incubated for 48 hrs by sulforhodamine B assay relative to control; format: functional; conditions: read-out: Activity
NCI-H322M [2] = assay: Growth inhibition of human NCI-H322M cells assessed as growth percentage at 10 uM incubated for 48 hrs by sulforhodamine B assay relative to control; format: functional; conditions: read-out: Activity
NCI-H23 [3] = assay: Growth inhibition of human NCI-H23 cells assessed as growth percentage at 10 uM incubated for 48 hrs by sulforhodamine B assay relative to control; format: functional; conditions: read-out: Activity
HOP-62 = assay: Growth inhibition of human HOP-62 cells assessed as growth percentage at 10 uM incubated for 48 hrs by sulforhodamine B assay relative to control; format: functional; conditions: read-out: Activity
786-0 = assay: Growth inhibition of human 786-0 cells incubated for 48 hrs by sulforhodamine B assay; format: functional
SK-MEL-5 = assay: Growth inhibition of human SK-MEL-5 cells incubated for 48 hrs by sulforhodamine B assay; format: functional; conditions: for CC50: read-out: LC50 (the source's name); for GI50 / TGI: SK-MEL-5
SK-MEL-28 = assay: Growth inhibition of human SK-MEL-28 cells incubated for 48 hrs by sulforhodamine B assay; format: functional
U-251 [4] = assay: Growth inhibition of human U-251 cells incubated for 48 hrs by sulforhodamine B assay; format: functional; conditions: for CC50: read-out: LC50 (the source's name)
KM12 = assay: Growth inhibition of human KM12 cells incubated for 48 hrs by sulforhodamine B assay; format: functional; conditions: for TGI: KM12
HT-29 = assay: Growth inhibition of human HT-29 cells incubated for 48 hrs by sulforhodamine B assay; format: functional; conditions: for GI50: HT-29; for CC50: HT-29, read-out: LC50 (the source's name)
CCRF-CEM = assay: Growth inhibition of human CCRF-CEM cells incubated for 48 hrs by sulforhodamine B assay; format: functional
[5] = Cytotoxicity against human HFF-1 cells assessed as cell growth inhibition at 10 uM by MTT assay relative to control; format: cell-based; conditions: read-out: GI
HCT-116 [6] = assay: Antiproliferative activity against human HCT-116 cells assessed as cell growth inhibition at 10 uM measured after 72 hrs by MTT assay relative to control; format: functional; conditions: read-out: GI
DU-145 = assay: Growth inhibition of human DU-145 cells assessed as growth percentage at 100 uM incubated for 48 hrs by sulforhodamine B assay relative to control; format: functional; conditions: read-out: Activity
PC-3 = assay: Growth inhibition of human PC-3 cells assessed as growth percentage at 100 uM incubated for 48 hrs by sulforhodamine B assay relative to control; format: functional; conditions: read-out: Activity
A498 = assay: Growth inhibition of human A498 cells assessed as growth percentage at 100 uM incubated for 48 hrs by sulforhodamine B assay relative to control; format: functional; conditions: read-out: Activity
RPMI-8226 = assay: Growth inhibition of human RPMI-8226 cells assessed as growth percentage at 100 uM incubated for 48 hrs by sulforhodamine B assay relative to control; format: functional; conditions: read-out: Activity
T47D [7] = assay: Growth inhibition of human T47D cells assessed as growth percentage at 1 uM incubated for 48 hrs by sulforhodamine B assay relative to control; format: functional; conditions: read-out: Activity
MCF7 [8] = assay: Growth inhibition of human MCF7 cells assessed as growth percentage at 1 uM incubated for 48 hrs by sulforhodamine B assay relative to control; format: functional; conditions: read-out: Activity
UO-31 = assay: Growth inhibition of human UO-31 cells assessed as growth percentage at 1 uM incubated for 48 hrs by sulforhodamine B assay relative to control; format: functional; conditions: read-out: Activity
NCI/ADR-RES = assay: Growth inhibition of human NCI/ADR-RES cells assessed as growth percentage at 1 uM incubated for 48 hrs by sulforhodamine B assay relative to control; format: functional; conditions: read-out: Activity
NCI-H322M [9] = assay: Growth inhibition of human NCI-H322M cells assessed as growth percentage at 1 uM incubated for 48 hrs by sulforhodamine B assay relative to control; format: functional; conditions: read-out: Activity
NCI-H23 [10] = assay: Growth inhibition of human NCI-H23 cells assessed as growth percentage at 1 uM incubated for 48 hrs by sulforhodamine B assay relative to control; format: functional; conditions: read-out: Activity
HOP-92 = assay: Growth inhibition of human HOP-92 cells assessed as growth percentage at 1 uM incubated for 48 hrs by sulforhodamine B assay relative to control; format: functional; conditions: read-out: Activity
K562 = assay: Growth inhibition of human K562 cells assessed as growth percentage at 1 uM incubated for 48 hrs by sulforhodamine B assay relative to control; format: functional; conditions: read-out: Activity
MCF7 [11] = assay: Growth inhibition of human MCF7 cells assessed as growth percentage at 0.1 uM incubated for 48 hrs by sulforhodamine B assay relative to control; format: functional; conditions: read-out: Activity
CAKI-1 = assay: Growth inhibition of human CAKI-1 cells assessed as growth percentage at 0.1 uM incubated for 48 hrs by sulforhodamine B assay relative to control; format: functional; conditions: read-out: Activity
OVCAR-3 = assay: Growth inhibition of human OVCAR-3 cells assessed as growth percentage at 0.1 uM incubated for 48 hrs by sulforhodamine B assay relative to control; format: functional; conditions: read-out: Activity
UACC-257 = assay: Growth inhibition of human UACC-257 cells assessed as growth percentage at 0.1 uM incubated for 48 hrs by sulforhodamine B assay relative to control; format: functional; conditions: read-out: Activity
HCC 2998 = assay: Growth inhibition of human HCC 2998 cells assessed as growth percentage at 0.1 uM incubated for 48 hrs by sulforhodamine B assay relative to control; format: functional; conditions: read-out: Activity
MDA-MB-435 = assay: Growth inhibition of human MDA-MB-435 cells assessed as growth percentage at 0.01 uM incubated for 48 hrs by sulforhodamine B assay relative to control; format: functional; conditions: read-out: Activity
Malme-3M = assay: Growth inhibition of human Malme-3M cells assessed as growth percentage at 0.01 uM incubated for 48 hrs by sulforhodamine B assay relative to control; format: functional; conditions: read-out: Activity
U-251 [12] = assay: Growth inhibition of human U-251 cells assessed as growth percentage at 0.01 uM incubated for 48 hrs by sulforhodamine B assay relative to control; format: functional; conditions: read-out: Activity
SNB-75 = assay: Growth inhibition of human SNB-75 cells assessed as growth percentage at 0.01 uM incubated for 48 hrs by sulforhodamine B assay relative to control; format: functional; conditions: read-out: Activity
SNB-19 = assay: Growth inhibition of human SNB-19 cells assessed as growth percentage at 0.01 uM incubated for 48 hrs by sulforhodamine B assay relative to control; format: functional; conditions: read-out: Activity
HCT-15 = assay: Growth inhibition of human HCT-15 cells assessed as growth percentage at 0.01 uM incubated for 48 hrs by sulforhodamine B assay relative to control; format: functional; conditions: read-out: Activity
HCT-116 [13] = assay: Growth inhibition of human HCT-116 cells assessed as growth percentage at 0.01 uM incubated for 48 hrs by sulforhodamine B assay relative to control; format: functional; conditions: read-out: Activity

Nc1nc2[nH]c(CN3CCN(c4cc(Cl)cc(Cl)c4)CC3)c(CN3CCN(c4cc(Cl)cc(Cl)c4)CC3)c2c(=O)[nH]1
growth at 10 µM (T47D [1]): 62.9%
growth at 10 µM (SF-295): 98.4%
growth at 10 µM (NCI-H322M [2]): 64.3%
growth at 10 µM (NCI-H23 [3]): 85.7%
growth at 10 µM (HOP-62): 84.2%
GI50 (786-0): 1570 nM
TGI (786-0): 3180 nM
CC50 (SK-MEL-5; 48 h): 2890 nM
GI50 (SK-MEL-5; Homo sapiens): 1630 nM
TGI (SK-MEL-5; Homo sapiens): 3070 nM
CC50 (SK-MEL-5; Homo sapiens, SK-MEL-5, 48 h): 5760 nM
GI50 (SK-MEL-28): 1790 nM
TGI (SK-MEL-28): 3620 nM
GI50 (U-251 [4]; Homo sapiens, U-251, 48 h): 1670 nM
TGI (U-251 [4]; Homo sapiens, U-251, 48 h): 3140 nM
CC50 (U-251 [4]; Homo sapiens, U-251, 48 h): 5900 nM
TGI (KM12; Homo sapiens): 3420 nM
GI50 (KM12; Homo sapiens, KM12, 48 h): 1830 nM
CC50 (KM12; Homo sapiens, KM12, read-out: LC50 (the source's name)): 6380 nM
GI50 (HT-29): 1740 nM
TGI (HT-29; HT-29, 48 h): 3410 nM
CC50 (HT-29): 6700 nM
TGI (CCRF-CEM; Homo sapiens, CCRF-CEM): 5520 nM
GI50 (CCRF-CEM; Homo sapiens, CCRF-CEM, 48 h): 2070 nM
inhibition at 10 µM [5]: 15.8%
inhibition of growth at 10 µM (HCT-116 [6]): 91.7%
growth at 100 µM (DU-145): -92%
growth at 100 µM (PC-3): -81%
growth at 100 µM (A498): -72%
growth at 100 µM (RPMI-8226): -19%
growth at 1 µM (T47D [7]): 85%
growth at 1 µM (MCF7 [8]): 79%
growth at 1 µM (UO-31): 90%
growth at 1 µM (NCI/ADR-RES): 102%
growth at 1 µM (NCI-H322M [9]): 100%
growth at 1 µM (NCI-H23 [10]): 103%
growth at 1 µM (HOP-92): 65%
growth at 1 µM (K562): 83%
growth at 0.1 µM (MCF7 [11]): 90%
growth at 0.1 µM (CAKI-1): 90%
growth at 0.1 µM (OVCAR-3): 106%
growth at 0.1 µM (UACC-257): 99%
growth at 0.1 µM (HCC 2998): 99%
growth at 0.01 µM (MDA-MB-435): 89%
growth at 0.01 µM (Malme-3M): 95%
growth at 0.01 µM (U-251 [12]): 99%
growth at 0.01 µM (SNB-75): 81%
growth at 0.01 µM (SNB-19): 96%
growth at 0.01 µM (HCT-15): 98%
growth at 0.01 µM (HCT-116 [13]): 100%

CCCCCCCC(=O)Nc1nc2[nH]c(CN3CCN(Cc4cccc(F)c4)CC3)c(CN3CCN(Cc4cccc(F)c4)CC3)c2c(=O)[nH]1
growth at 10 µM (T47D [1]): -84.2%
growth at 10 µM (SF-295): -69.2%
growth at 10 µM (NCI-H322M [2]): -41.2%
growth at 10 µM (NCI-H23 [3]): -53.8%
growth at 10 µM (HOP-62): -93.2%
GI50 (786-0): 1540 nM
LC50 (concentration killing 50% of cells) (786-0): 5670 nM
TGI (786-0): 2950 nM
GI50 (SK-MEL-5; Homo sapiens): 1570 nM
TGI (SK-MEL-5; Homo sapiens): 3030 nM
CC50 (SK-MEL-5; Homo sapiens, SK-MEL-5, 48 h): 5870 nM
GI50 (SK-MEL-28): 1790 nM
TGI (SK-MEL-28): 3620 nM
GI50 (U-251 [4]; 48 h): 170 nM
TGI (U-251 [4]; 48 h): 330 nM
CC50 (U-251 [4]; 48 h): 610 nM
GI50 (U-251 [4]; Homo sapiens, U-251, 48 h): 172 nM
TGI (U-251 [4]; Homo sapiens, U-251, 48 h): 325 nM
CC50 (U-251 [4]; Homo sapiens, U-251, 48 h): 614 nM
GI50 (KM12; 48 h): 720 nM
TGI (KM12; Homo sapiens): 2380 nM
GI50 (KM12; Homo sapiens, KM12, 48 h): 719 nM
GI50 (HT-29): 260 nM
CC50 (HT-29): 3760 nM
GI50 (CCRF-CEM; 48 h): 250 nM
LC50 (CCRF-CEM; 48 h): 100000 nM and > 1000 nM
GI50 (CCRF-CEM; Homo sapiens, CCRF-CEM, 48 h): 251 nM
inhibition at 10 µM [5]: 14.1%
inhibition of growth at 10 µM (HCT-116 [6]): 95.5%
growth at 100 µM (DU-145): -83%
growth at 100 µM (PC-3): -88%
growth at 100 µM (A498): -98%
growth at 100 µM (RPMI-8226): 1%
growth at 1 µM (T47D [7]): 80%
growth at 1 µM (MCF7 [8]): -51%
growth at 1 µM (UO-31): 25%
growth at 1 µM (NCI/ADR-RES): 79%
growth at 1 µM (NCI-H322M [9]): 77%
growth at 1 µM (NCI-H23 [10]): 92%
growth at 1 µM (HOP-92): 59%
growth at 1 µM (K562): -31%
growth at 0.1 µM (MCF7 [11]): 87%
growth at 0.1 µM (CAKI-1): 85%
growth at 0.1 µM (OVCAR-3): 102%
growth at 0.1 µM (UACC-257): 94%
growth at 0.1 µM (HCC 2998): 104%
growth at 0.01 µM (MDA-MB-435): 99%
growth at 0.01 µM (Malme-3M): 98%
growth at 0.01 µM (U-251 [12]): 97%
growth at 0.01 µM (SNB-75): 93%
growth at 0.01 µM (SNB-19): 96%
growth at 0.01 µM (HCT-15): 98%
growth at 0.01 µM (HCT-116 [13]): 95%
